Reference: ChEMBL document CHEMBL1212786 (Antimicrob Agents Chemother, 2010)

What was measured:
CYP3A4 [1] = target: T1, CYP3A4 (Homo sapiens, UniProt P08684); experiment: Induction of CYP3A4 in human hepatocytes at 2 uM after 72 hrs relative to control; format: ADME, cell-based, Hepatocyte; conditions: read-out: FC
CYP1A2 [2] = target: T2, CYP1A2 (Homo sapiens, UniProt P05177); experiment: Induction of CYP1A2 in human hepatocytes at 2 uM after 72 hrs relative to control; format: ADME, cell-based, Hepatocyte; conditions: read-out: FC
T2 sequence (P05177 whole entry): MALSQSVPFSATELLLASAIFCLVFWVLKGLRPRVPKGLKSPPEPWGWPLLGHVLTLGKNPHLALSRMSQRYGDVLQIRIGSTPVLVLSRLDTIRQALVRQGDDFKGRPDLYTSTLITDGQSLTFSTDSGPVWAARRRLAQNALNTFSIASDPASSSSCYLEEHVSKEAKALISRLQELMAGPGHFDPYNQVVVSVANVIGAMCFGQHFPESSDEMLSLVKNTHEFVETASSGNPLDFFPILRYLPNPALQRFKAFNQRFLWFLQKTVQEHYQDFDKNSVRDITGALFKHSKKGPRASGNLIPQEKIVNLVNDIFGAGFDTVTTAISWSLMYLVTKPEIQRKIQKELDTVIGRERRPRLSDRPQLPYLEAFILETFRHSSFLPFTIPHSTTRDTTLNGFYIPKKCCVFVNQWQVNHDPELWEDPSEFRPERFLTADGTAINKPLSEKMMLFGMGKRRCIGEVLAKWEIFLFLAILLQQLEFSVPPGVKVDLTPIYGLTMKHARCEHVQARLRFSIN

CYP2B6 [3] = target: T3, CYP2B6 (Homo sapiens, UniProt P20813); experiment: Induction of CYP2B6 in human hepatocytes at 2 uM after 72 hr relative to control; format: ADME, cell-based, Hepatocyte; conditions: read-out: FC
T3 sequence (P20813 whole entry): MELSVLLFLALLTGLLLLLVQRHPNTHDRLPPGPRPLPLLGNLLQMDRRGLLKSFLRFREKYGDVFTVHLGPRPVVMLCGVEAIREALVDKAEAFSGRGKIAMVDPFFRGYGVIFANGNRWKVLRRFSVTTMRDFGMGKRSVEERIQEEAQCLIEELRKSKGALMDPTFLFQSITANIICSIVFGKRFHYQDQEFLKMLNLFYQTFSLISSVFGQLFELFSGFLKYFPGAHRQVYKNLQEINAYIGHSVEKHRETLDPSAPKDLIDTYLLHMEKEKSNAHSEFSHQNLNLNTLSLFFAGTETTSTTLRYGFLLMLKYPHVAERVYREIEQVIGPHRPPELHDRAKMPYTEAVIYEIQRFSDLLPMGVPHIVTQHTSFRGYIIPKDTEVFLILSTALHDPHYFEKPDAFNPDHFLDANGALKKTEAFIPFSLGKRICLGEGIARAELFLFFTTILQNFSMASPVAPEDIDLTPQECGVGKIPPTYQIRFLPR

CYP2B6 [4] = target: T3, CYP2B6; experiment: Induction of CYP2B6 in human hepatocytes at 1000 uM after 72 hrs relative to control; format: ADME, cell-based, Hepatocyte; conditions: read-out: FC
CYP3A4 [5] = target: T1, CYP3A4; experiment: Induction of CYP3A4 in human hepatocytes at 1000 uM after 72 hrs relative to control; format: ADME, cell-based, Hepatocyte; conditions: read-out: FC
CYP1A2 [6] = target: T2, CYP1A2; experiment: Induction of CYP1A2 in human hepatocytes at 1000 uM after 72 hrs relative to control; format: ADME, cell-based, Hepatocyte; conditions: read-out: FC
PBMC = experiment: Antiinflammatory activity in human PBMC assessed as inhibition of anti-CD3/CD28 antibody-induced IL-2 production treated for 1 hr before anti-CD3/CD28 antibody challenge measured after 6 hrs by immunosuppression assay; format: functional, cell-based
Hepatitis C virus = experiment: Antiviral activity against Hepatitis C virus infected in human Huh7ET cells assessed as inhibition of viral replication after 72 hrs by luciferase reporter gene assay; format: functional, organism-based, Hepacivirus hominis; conditions: Huh-7, 72 h

T1 sequence (P08684 whole entry): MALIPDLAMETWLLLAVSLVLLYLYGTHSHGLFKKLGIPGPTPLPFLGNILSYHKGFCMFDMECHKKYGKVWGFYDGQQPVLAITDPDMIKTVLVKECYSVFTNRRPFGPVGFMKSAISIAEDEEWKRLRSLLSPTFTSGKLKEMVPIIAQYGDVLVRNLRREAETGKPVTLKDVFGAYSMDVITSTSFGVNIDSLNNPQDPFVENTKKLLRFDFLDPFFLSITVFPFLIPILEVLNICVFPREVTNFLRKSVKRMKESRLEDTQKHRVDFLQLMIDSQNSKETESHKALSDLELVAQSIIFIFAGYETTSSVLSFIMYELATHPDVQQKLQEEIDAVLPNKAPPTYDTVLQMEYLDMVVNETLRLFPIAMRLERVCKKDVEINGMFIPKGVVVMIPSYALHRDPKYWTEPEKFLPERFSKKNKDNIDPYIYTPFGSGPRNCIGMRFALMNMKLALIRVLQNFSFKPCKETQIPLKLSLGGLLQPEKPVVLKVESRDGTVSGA

Cc1ccc2cc3c(ccc4ccccc43)c3c2c1CC3 [3-METHYLCHOLANTHRENE]
fold induction at 72 h, 2 µM (CYP3A4 [1]): 0.97
fold induction at 72 h, 2 µM (CYP1A2 [2]): 21.2
fold induction at 72 h, 2 µM (CYP2B6 [3]): 1.33

CCC1(c2ccccc2)C(=O)NC(=O)NC1=O [PHENOBARBITAL]
fold induction at 72 h, 1000 µM (CYP2B6 [4]): 9.1
fold induction at 72 h, 1000 µM (CYP3A4 [5]): 6.73
fold induction at 72 h, 1000 µM (CYP1A2 [6]): 1.67

C/C=C/C[C@@H](C)[C@@H](O)[C@H]1C(=O)N[C@@H](CC)C(=O)N(C)CC(=O)N(C)[C@@H](CC(C)C)C(=O)N[C@@H](C(C)C)C(=O)N(C)[C@@H](CC(C)C)C(=O)N[C@@H](C)C(=O)N[C@H](C)C(=O)N(C)[C@@H](CC(C)C)C(=O)N(C)[C@@H](CC(C)C)C(=O)N(C)[C@@H](C(C)C)C(=O)N1C [CYCLOSPORINE]
EC50 (PBMC): 3.1 nM
CC50 (Hepatitis C virus): 5620 nM
